Measurements as given in the CheMixHub ionic liquid set.

Assay: xn = mol fraction of the nth substance listed
Conditions: 101 kPa

N[C@@H](Cc1c[nH]cn1)C(=O)O + CCCCCCCCCCCC[N+](C)(C)C.[Br-] + O
viscosity [mPa·s]
Conditions | 293.15 K | 298.15 K | 303.15 K | 308.15 K | 313.15 K
x1 = 0.0001801, x2 = 0.0001083 | 1.03 | 0.904 | 0.816 | 0.738 | 0.668
x1 = 0.0001801, x2 = 0.0001624 | 1.033 | 0.908 | 0.816 | 0.741 | 0.669
x1 = 0.0001801, x2 = 0.0002165 | 1.035 | 0.909 | 0.821 | 0.745 | 0.67
x1 = 0.0001801, x2 = 0.0002706 | 1.038 | 0.918 | 0.823 | 0.748 | 0.672
x1 = 0.0001801, x2 = 0.0003247 | 1.043 | 0.925 | 0.827 | 0.751 | 0.674
x1 = 0.0001801, x2 = 0.0003788 | 1.048 | 0.927 | 0.839 | 0.753 | 0.676
x1 = 0.0001801, x2 = 0.0004329 | 1.056 | 0.931 | 0.843 | 0.756 | 0.68
x1 = 0.0001801, x2 = 0.000487 | 1.06 | 0.935 | 0.849 | 0.758 | 0.685
x1 = 0.0001801, x2 = 0.000541 | 1.062 | 0.935 | 0.851 | 0.76 | 0.689
x1 = 0.0001802, x2 = 5.413e-05 | 1.027 | 0.901 | 0.815 | 0.736 | 0.667
x1 = 0.0008997, x2 = 0.000544 | 1.041 | 0.906 | 0.823 | 0.737 | 0.651
x1 = 0.0008998, x2 = 0.0003809 | 1.032 | 0.891 | 0.808 | 0.728 | 0.646
x1 = 0.0008998, x2 = 0.0004352 | 1.035 | 0.894 | 0.812 | 0.732 | 0.647
x1 = 0.0008998, x2 = 0.0004896 | 1.038 | 0.9 | 0.818 | 0.734 | 0.649
x1 = 0.0008999, x2 = 0.0002721 | 1.029 | 0.885 | 0.803 | 0.724 | 0.644
x1 = 0.0008999, x2 = 0.0003265 | 1.03 | 0.888 | 0.806 | 0.727 | 0.645
x1 = 0.0009, x2 = 0.0001633 | 1.025 | 0.879 | 0.8 | 0.722 | 0.641
x1 = 0.0009, x2 = 0.0002177 | 1.027 | 0.881 | 0.802 | 0.722 | 0.643
x1 = 0.0009001, x2 = 5.443e-05 | 1.02 | 0.874 | 0.796 | 0.721 | 0.64
x1 = 0.0009001, x2 = 0.0001089 | 1.022 | 0.876 | 0.799 | 0.721 | 0.64
x1 = 0.001798, x2 = 0.0001644 | 1.065 | 0.915 | 0.85 | 0.756 | 0.685
x1 = 0.001798, x2 = 0.0002191 | 1.067 | 0.916 | 0.854 | 0.759 | 0.688
x1 = 0.001798, x2 = 0.0002739 | 1.068 | 0.919 | 0.858 | 0.76 | 0.691
x1 = 0.001798, x2 = 0.0003287 | 1.07 | 0.92 | 0.862 | 0.764 | 0.693
x1 = 0.001798, x2 = 0.0003835 | 1.072 | 0.923 | 0.867 | 0.771 | 0.696
x1 = 0.001798, x2 = 0.0004382 | 1.079 | 0.927 | 0.87 | 0.776 | 0.701
x1 = 0.001798, x2 = 0.000493 | 1.083 | 0.931 | 0.876 | 0.781 | 0.706
x1 = 0.001798, x2 = 0.0005477 | 1.089 | 0.939 | 0.881 | 0.786 | 0.709
x1 = 0.001799, x2 = 5.48e-05 | 1.061 | 0.908 | 0.842 | 0.751 | 0.68
x1 = 0.001799, x2 = 0.0001096 | 1.064 | 0.912 | 0.846 | 0.755 | 0.683
